# ChEMBL document CHEMBL3045569, “Synthesis of allyl esters of fatty acids and their ovicidal effect on Cydia pomonella (L.)” (2009)
# The source made the active and inactive calls. No cut-off for these calls is given here.
# Columns and labels:
# [1] = system: Cydia pomonella; experiment: Ovicidal activity against <24 hr-old Cydia pomonella (codling moth) eggs assessed as corrected mortality at 0.5 mg/ml applied as 0.1 ul drop solution topically measured for 3 days; type: functional; conditions: topical, 72 h
# [2] = system: Cydia pomonella; experiment: Ovicidal activity against <24 hr-old Cydia pomonella (codling moth) eggs assessed as corrected mortality at 10 mg/ml applied as 0.1 ul drop solution topically measured for 3 days; type: functional; conditions: topical, 72 h
# [3] = system: Cydia pomonella; experiment: Ovicidal activity against <24 hr-old Cydia pomonella (codling moth) eggs assessed as corrected mortality at 5 mg/ml applied as 0.1 ul drop solution topically measured for 3 days; type: functional; conditions: topical, 72 h
# [4] = system: Cydia pomonella; experiment: Ovicidal activity against <24 hr-old Cydia pomonella (codling moth) eggs assessed as corrected mortality at 2.5 mg/ml applied as 0.1 ul drop solution topically measured for 3 days; type: functional; conditions: topical, 72 h
# [5] = system: Cydia pomonella; experiment: Ovicidal activity against <24 hr-old Cydia pomonella (codling moth) eggs assessed as corrected mortality at 0.1 mg/ml applied as 0.1 ul drop solution topically measured for 3 days; type: functional; conditions: topical, 72 h
# [6] = system: Cydia pomonella; experiment: Ovicidal activity against <24 hr-old Cydia pomonella (codling moth) eggs assessed as corrected mortality at 7.5 mg/ml applied as 0.1 ul drop solution topically measured for 3 days; type: functional; conditions: topical, 72 h
# [7] = system: Cydia pomonella; experiment: Ovicidal activity against <24 hr-old Cydia pomonella (codling moth) eggs assessed as mortality at the stage of black head development at 10 mg/ml applied as 0.1 ul drop solution topically measured for 3 days (acetone Rvb = 94.4 +/-0.1%); type: functional; conditions: topical, 72 h
# [8] = system: Cydia pomonella; experiment: Ovicidal activity against <24 hr-old Cydia pomonella (codling moth) eggs assessed as increase in duration of the development of eggs applied as 0.1 ul drop solution topically measured for 3 days; type: functional, organism-based
# [9] = system: Cydia pomonella; experiment: Ovicidal activity against <24 hr-old Cydia pomonella (codling moth) eggs assessed as corrected mortality at 1 mg/ml applied as 0.1 ul drop solution topically measured for 3 days; type: functional; conditions: topical, 72 h
# [10] = system: Cydia pomonella; experiment: Ovicidal activity against <24 hr-old Cydia pomonella (codling moth) eggs assessed as mortality at the stage of red ring development at 10 mg/ml applied as 0.1 ul drop solution topically measured for 3 days (acetone Rvb = 4.4 +/-0.22%); type: functional; conditions: topical, 72 h
# [11] = system: Cydia pomonella; experiment: Ovicidal activity against <24 hr-old Cydia pomonella (codling moth) eggs assessed as corrected mortality at 1.75 mg/ml applied as 0.1 ul drop solution topically measured for 3 days; type: functional; conditions: topical, 72 h
# [12] = system: Cydia pomonella; experiment: Ovicidal activity against <24 hr-old Cydia pomonella (codling moth) eggs assessed as mortality applied as 0.1 ul drop solution topically measured for 3 days; type: functional; conditions: for LC50: Cydia pomonella, topical, 72 h
# [13] = system: Cydia pomonella; experiment: Ovicidal activity against <24 hr-old Cydia pomonella (codling moth) eggs assessed as mortality at the stage of white head development at 10 mg/ml applied as 0.1 ul drop solution topically measured for 3 days (acetone Rvb = 1.1 +/-0.44%); type: functional; conditions: topical, 72 h
SMILES,mortality at 500 µg/mL [1],mortality at 10000 µg/mL [2],mortality at 5000 µg/mL [3],mortality at 2500 µg/mL [4],mortality at 100 µg/mL [5],mortality at 7500 µg/mL [6],mortality at 10000 µg/mL [7],Activity [8],mortality at 1000 µg/mL [9],mortality at 10000 µg/mL [10],mortality at 1750 µg/mL [11],LC90 [12],LC50 [12],mortality at 10000 µg/mL [13]
CCOC(=O)NCCOc1ccc(Oc2ccccc2)cc1 [PHENOXYCARB],100%,–,–,–,–,–,–,–,–,–,–,–,–,–
C=CCOC(=O)CCCCCCCCC [ALLYL DECANOATE],12.4%,100%,98.7%,97.2%,7.4%,100%,14.4%,Active,30.5%,16.7%,76.3%,2260 µg/mL,1400 µg/mL,68.9%
C=CCOC(=O)CCCCC [ALLYL HEXANOATE],22.4%,100%,98.7%,95.8%,8.4%,100%,18.9%,Active,51.2%,13.3%,83.8%,2130 µg/mL,–,67.8%
C=CCOC(=O)CCC [ALLYL BUTANOATE],20.5%,100%,98.7%,83.3%,6%,100%,10%,Active,42.7%,14.4%,72%,3200 µg/mL,1060 µg/mL,75.6%
C=CCOC(=O)CCCCCCCCCCCCCCCCC [ALLYL OCTADECANOATE],11.9%,100%,82.2%,41.6%,0%,87.2%,43.3%,Active,17.3%,13.3%,32.1%,7330 µg/mL,2690 µg/mL,43.3%
C=CCOC(=O)CCCCCCCCCCCCCCC [HEXADECANOIC ACID ALLYL ESTER],0%,100%,72.2%,66.6%,0%,87.2%,46.7%,Active,6%,24.4%,32.6%,7970 µg/mL,2460 µg/mL,28.9%
C=CCOC(=O)CCCCCCCCCCC [ALLYL DODECANOATE],10%,100%,96.5%,95.9%,0%,98.8%,18.9%,Active,36.4%,12.2%,71.7%,2340 µg/mL,1140 µg/mL,68.9%
C=CCOC(=O)CCCCCCCCCCCCC [ALLYL TETRADECANOATE],7.5%,100%,97.2%,87.5%,4.6%,97.7%,27.8%,Active,19.8%,17.8%,49.5%,3240 µg/mL,1410 µg/mL,54.4%
C=CCOC(=O)CCCCCCC [ALLYL OCTANOATE],29.9%,100%,97.7%,95.9%,9.7%,98.8%,6.7%,Active,59.2%,13.3%,83.8%,2180 µg/mL,710 µg/mL,80%
